The results in this text go back to article PMC8550792, “Evolution of kinase polypharmacology across HSP90 drug discovery” (Cell Chemical Biology, 2021).

What all share (assay): biochemical
Common to all, as to type: biochemical

Experiment [1] addresses T1, 382 unique human kinases (Homo sapiens, UniProt O00238).
T1 construct: purchased Reaction Biology (HotSpot contract assay)
The note with it: kinase ALK6/BMPR1B, compound 10 uM; for remaining activity at 10 µM: read-out: % Enzyme Activity (relative to DMSO controls).

The target of experiment [2] is T2, 382 unique human kinases (Homo sapiens, UniProt P04049).
T2 construct: purchased Reaction Biology (HotSpot contract assay)
T2 sequence (P04049 whole entry): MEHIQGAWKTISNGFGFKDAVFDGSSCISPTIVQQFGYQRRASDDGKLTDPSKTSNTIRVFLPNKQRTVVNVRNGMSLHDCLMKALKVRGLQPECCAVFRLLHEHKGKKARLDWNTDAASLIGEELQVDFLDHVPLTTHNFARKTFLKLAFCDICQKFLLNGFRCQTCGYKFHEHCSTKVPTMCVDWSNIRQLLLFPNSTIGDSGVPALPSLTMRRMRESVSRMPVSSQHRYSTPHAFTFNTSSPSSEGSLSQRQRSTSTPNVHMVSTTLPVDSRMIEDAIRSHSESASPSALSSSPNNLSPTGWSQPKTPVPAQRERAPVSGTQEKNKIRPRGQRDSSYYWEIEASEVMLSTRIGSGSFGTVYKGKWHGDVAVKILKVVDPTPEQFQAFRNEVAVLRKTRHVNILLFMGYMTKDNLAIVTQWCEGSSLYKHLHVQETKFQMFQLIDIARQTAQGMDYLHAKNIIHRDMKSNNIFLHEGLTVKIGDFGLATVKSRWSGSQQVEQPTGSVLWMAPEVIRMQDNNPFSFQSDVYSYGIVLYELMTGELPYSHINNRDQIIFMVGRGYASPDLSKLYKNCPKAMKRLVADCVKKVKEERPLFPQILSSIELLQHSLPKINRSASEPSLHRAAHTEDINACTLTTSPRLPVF
The settings on record: RAF1, compound at 10 uM, duplicate values; for remaining activity at 10 µM: read-out: % Enzyme Activity (relative to DMSO controls).

The target in experiment [3] is T3, 382 unique human kinases (Homo sapiens, UniProt P31751).
T3 construct: purchased Reaction Biology (HotSpot contract assay)
T3 sequence (P31751 whole entry): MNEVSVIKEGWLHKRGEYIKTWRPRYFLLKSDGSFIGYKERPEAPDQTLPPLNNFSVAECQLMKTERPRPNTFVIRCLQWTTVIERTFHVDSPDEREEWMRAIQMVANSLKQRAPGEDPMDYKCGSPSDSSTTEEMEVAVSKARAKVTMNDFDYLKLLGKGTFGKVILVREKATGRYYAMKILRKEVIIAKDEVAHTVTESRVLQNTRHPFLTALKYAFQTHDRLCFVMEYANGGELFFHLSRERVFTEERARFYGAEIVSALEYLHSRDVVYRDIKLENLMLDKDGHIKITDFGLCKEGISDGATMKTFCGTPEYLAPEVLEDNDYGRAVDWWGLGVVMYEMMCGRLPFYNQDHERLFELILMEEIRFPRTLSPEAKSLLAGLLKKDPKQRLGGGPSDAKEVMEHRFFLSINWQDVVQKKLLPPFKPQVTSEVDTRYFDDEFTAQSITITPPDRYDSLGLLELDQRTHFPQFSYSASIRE
The note with it: kinase AKT2, compound 10 uM; for remaining activity at 10 µM: read-out: % Enzyme Activity (relative to DMSO controls).

Experiment [4] deals with T4, 382 unique human kinases (Homo sapiens, UniProt P52333).
T4 construct: purchased Reaction Biology (HotSpot contract assay)
T4 sequence (P52333 1-1124): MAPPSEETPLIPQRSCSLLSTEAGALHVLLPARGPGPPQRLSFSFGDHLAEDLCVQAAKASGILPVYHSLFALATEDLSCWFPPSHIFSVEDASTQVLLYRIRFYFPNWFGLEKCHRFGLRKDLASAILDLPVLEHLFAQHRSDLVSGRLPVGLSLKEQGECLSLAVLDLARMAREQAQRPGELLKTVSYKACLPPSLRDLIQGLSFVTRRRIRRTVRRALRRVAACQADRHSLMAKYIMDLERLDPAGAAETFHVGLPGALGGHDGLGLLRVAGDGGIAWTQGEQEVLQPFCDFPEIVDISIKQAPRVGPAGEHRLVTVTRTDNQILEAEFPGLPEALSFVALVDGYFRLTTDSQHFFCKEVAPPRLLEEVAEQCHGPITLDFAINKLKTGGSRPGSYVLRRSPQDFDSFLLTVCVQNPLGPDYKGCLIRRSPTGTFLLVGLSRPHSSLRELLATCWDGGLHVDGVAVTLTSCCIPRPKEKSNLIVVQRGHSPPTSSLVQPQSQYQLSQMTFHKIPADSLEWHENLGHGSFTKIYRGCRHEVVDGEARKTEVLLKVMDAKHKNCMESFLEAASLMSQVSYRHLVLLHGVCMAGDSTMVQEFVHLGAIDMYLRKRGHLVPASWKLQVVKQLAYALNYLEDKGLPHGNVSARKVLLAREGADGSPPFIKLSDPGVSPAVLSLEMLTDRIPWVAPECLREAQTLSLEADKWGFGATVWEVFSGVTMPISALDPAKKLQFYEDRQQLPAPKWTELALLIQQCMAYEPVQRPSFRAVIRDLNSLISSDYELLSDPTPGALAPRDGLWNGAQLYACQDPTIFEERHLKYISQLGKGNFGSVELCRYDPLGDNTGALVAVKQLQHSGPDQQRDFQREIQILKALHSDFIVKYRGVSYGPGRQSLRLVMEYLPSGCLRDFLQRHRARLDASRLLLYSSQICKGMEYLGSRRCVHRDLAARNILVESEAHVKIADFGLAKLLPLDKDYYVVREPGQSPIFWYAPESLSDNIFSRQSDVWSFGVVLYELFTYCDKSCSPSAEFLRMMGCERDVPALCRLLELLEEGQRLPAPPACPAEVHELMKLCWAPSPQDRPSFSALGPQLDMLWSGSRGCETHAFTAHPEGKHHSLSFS
The settings on record: JAK3, 10 uM; for remaining activity at 10 µM: read-out: % Enzyme Activity (relative to DMSO controls).

In experiment [5] the target is T5, 382 unique human kinases (Homo sapiens, UniProt P78362).
T5 construct: purchased Reaction Biology (HotSpot contract assay)
The settings on record: kinase SRPK2, compound 10 uM; for remaining activity at 10 µM: read-out: % Enzyme Activity (relative to DMSO controls).

Experiment [6] deals with T6, 382 unique human kinases (Homo sapiens, UniProt Q5VT25).
T6 construct: purchased Reaction Biology (HotSpot contract assay)
T6 sequence (Q5VT25 whole entry): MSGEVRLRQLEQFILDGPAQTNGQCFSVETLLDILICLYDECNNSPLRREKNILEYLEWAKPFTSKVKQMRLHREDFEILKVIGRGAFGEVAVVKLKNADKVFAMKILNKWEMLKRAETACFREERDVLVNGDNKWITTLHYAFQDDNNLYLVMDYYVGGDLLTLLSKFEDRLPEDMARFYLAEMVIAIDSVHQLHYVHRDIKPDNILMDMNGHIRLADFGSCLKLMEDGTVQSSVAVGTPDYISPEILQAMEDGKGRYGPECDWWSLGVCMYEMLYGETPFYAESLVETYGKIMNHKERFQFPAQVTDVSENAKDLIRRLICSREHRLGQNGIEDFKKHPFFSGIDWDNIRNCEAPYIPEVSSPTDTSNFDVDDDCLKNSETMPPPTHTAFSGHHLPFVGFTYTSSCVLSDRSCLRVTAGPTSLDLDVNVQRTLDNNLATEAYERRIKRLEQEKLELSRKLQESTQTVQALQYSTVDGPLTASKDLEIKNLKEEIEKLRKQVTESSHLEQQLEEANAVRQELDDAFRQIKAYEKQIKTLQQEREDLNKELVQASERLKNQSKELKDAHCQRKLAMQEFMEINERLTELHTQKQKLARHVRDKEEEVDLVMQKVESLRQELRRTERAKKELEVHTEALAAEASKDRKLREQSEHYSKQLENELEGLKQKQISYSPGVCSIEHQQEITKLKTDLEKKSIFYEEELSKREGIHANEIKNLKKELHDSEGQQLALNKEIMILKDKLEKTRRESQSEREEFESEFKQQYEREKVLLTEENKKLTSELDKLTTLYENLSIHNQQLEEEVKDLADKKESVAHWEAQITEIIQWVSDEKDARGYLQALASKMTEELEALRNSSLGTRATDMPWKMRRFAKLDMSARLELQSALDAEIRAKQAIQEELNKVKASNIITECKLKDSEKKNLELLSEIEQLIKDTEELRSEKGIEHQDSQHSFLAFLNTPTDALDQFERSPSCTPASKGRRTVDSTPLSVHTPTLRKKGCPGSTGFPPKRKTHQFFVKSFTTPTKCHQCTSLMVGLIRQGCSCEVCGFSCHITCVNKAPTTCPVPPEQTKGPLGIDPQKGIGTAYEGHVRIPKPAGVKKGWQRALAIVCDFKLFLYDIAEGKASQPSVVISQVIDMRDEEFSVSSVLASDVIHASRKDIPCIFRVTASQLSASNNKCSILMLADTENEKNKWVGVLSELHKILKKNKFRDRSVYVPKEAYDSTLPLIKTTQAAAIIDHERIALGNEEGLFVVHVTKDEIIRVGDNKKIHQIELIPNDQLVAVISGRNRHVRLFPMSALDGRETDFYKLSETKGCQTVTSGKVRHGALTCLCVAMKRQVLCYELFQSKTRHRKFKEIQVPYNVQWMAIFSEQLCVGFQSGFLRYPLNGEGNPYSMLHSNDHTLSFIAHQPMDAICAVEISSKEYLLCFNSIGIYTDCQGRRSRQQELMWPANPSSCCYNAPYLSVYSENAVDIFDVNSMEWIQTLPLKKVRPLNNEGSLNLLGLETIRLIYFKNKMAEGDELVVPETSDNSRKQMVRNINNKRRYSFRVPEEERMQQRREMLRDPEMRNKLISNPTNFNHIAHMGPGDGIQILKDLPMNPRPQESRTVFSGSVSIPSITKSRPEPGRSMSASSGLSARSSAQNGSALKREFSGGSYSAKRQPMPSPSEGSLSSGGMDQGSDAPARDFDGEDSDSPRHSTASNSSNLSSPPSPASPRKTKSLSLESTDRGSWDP
The settings on record: kinase MRCKa/CDC42BPA, compound 10 uM; for remaining activity at 10 µM: read-out: % Enzyme Activity (relative to DMSO controls).

The target in experiment [7] is T7, 382 unique human kinases (Homo sapiens, UniProt Q9Y2U5).
T7 construct: purchased Reaction Biology (HotSpot contract assay)
T7 sequence (Q9Y2U5 1-619): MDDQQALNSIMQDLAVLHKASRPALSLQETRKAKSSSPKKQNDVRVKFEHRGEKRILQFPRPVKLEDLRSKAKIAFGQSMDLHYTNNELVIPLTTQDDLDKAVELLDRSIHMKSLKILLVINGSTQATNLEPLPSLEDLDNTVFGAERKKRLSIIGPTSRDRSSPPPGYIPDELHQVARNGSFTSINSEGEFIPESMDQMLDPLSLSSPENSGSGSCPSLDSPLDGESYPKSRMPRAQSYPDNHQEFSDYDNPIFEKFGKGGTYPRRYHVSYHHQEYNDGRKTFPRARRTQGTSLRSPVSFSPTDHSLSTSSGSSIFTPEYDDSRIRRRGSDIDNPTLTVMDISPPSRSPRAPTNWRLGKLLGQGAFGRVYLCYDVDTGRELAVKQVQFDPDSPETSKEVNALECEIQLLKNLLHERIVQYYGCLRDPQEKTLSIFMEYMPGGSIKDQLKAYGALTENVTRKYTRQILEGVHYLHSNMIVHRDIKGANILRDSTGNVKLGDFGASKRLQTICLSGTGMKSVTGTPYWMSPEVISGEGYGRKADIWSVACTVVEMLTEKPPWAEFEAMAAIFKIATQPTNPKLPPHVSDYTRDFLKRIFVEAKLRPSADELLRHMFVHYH
The note with it: MEKK2, compound at 10 uM, duplicate values; for remaining activity at 10 µM: read-out: % Enzyme Activity (relative to DMSO controls).

Experiment [8] addresses T8, 382 unique human kinases (Homo sapiens, UniProt P05771).
T8 construct: purchased Reaction Biology (HotSpot contract assay)
The settings on record: PKCb1, 10 uM; for remaining activity at 10 µM: read-out: % Enzyme Activity (relative to DMSO controls).

Experiment [9] has as its target T9, 382 unique human kinases (Homo sapiens, UniProt P08581, V1092I).
T9 construct: purchased Reaction Biology (HotSpot contract assay)
The note with it: c-MET (V1092I), 10 uM; for remaining activity at 10 µM: read-out: % Enzyme Activity (relative to DMSO controls).

The target of experiment [10] is T10, 382 unique human kinases (Homo sapiens, UniProt P10721, V559D/V654A).
T10 construct: purchased Reaction Biology (HotSpot contract assay)
T10 sequence (P10721 26-976 V559D/V654A): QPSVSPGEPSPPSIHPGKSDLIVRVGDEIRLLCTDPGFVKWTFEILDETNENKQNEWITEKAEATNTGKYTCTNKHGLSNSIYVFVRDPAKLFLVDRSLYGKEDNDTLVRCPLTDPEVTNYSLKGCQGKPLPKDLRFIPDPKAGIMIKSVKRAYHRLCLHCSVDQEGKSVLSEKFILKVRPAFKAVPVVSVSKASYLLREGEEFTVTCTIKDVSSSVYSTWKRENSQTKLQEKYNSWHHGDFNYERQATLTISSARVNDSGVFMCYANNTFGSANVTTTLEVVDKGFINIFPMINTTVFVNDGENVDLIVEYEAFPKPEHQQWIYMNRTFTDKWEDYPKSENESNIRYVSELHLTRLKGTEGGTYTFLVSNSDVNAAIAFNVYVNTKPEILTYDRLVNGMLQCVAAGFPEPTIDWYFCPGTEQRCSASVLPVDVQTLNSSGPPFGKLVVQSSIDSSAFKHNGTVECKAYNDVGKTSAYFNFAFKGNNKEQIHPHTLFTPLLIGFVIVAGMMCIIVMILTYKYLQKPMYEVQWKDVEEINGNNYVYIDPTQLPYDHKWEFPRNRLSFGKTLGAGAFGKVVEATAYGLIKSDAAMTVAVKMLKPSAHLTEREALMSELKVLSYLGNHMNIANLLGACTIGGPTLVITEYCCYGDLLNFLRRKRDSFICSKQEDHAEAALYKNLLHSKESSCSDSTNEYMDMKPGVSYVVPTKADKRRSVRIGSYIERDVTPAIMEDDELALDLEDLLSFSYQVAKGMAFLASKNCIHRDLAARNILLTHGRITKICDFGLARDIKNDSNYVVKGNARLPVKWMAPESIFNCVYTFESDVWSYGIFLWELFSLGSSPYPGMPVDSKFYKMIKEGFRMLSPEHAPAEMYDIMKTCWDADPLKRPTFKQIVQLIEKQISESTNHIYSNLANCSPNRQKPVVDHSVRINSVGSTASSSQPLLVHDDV
The settings on record: c-Kit (V559D/V654A), 10 uM; for remaining activity at 10 µM: read-out: % Enzyme Activity (relative to DMSO controls).

The target in experiment [11] is T11, 382 unique human kinases (Homo sapiens, UniProt P22455, V550E).
T11 construct: purchased Reaction Biology (HotSpot contract assay)
T11 sequence (P22455 22-802 V550E): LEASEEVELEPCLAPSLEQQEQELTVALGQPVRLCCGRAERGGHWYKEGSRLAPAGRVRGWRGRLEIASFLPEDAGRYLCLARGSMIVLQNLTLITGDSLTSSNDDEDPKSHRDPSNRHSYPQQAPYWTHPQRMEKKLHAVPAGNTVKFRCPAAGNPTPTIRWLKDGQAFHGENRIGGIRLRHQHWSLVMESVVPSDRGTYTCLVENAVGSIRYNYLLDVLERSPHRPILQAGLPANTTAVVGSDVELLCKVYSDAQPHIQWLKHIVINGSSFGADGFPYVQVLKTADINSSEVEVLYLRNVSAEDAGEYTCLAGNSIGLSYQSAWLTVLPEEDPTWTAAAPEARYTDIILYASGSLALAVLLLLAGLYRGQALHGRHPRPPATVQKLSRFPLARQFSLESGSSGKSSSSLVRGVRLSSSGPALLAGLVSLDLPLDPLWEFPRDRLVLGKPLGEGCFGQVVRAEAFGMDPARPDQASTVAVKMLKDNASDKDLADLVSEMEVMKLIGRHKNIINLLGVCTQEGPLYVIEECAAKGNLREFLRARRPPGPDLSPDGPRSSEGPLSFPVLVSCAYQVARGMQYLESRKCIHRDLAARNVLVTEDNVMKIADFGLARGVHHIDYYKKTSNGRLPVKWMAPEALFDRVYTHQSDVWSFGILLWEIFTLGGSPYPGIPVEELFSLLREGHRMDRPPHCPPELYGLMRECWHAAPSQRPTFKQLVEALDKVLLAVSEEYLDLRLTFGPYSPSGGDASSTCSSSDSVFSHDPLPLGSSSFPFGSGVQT
The note with it: FGFR4 (V550E), 10 uM; for remaining activity at 10 µM: read-out: % Enzyme Activity (relative to DMSO controls).

T1 sequence (O00238 14-502): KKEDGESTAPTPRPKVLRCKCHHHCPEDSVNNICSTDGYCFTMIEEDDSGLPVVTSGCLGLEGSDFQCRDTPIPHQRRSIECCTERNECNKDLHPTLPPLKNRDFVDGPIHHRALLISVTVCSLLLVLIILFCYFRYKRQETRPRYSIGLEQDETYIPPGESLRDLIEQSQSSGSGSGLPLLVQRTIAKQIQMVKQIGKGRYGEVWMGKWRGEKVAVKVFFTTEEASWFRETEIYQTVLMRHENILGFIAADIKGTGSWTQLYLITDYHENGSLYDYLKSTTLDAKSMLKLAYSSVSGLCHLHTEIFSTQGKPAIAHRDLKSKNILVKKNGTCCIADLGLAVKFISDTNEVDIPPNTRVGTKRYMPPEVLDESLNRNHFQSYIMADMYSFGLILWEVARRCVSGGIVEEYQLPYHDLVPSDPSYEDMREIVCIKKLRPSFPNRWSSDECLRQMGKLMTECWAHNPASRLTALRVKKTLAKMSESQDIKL

For `CC(C)c1cc(-c2n[nH]c(=O)n2-c2ccc3c(ccn3C)c2)c(O)cc1O` [Ganetespib (STA9090)], the remaining activity at 10 µM in experiment [1] was determined as 94.5%; in experiment [2], 106%; in experiment [3] it was 83.9%; in [4], 60.1%; in experiment [5], 89.8%; in experiment [6] it was 87.6%. Also, the remaining activity at 10 µM in [7] came to 109%.
With `CC(C)c1cc(-c2n[nH]c(=O)n2-c2ccc3c(ccn3C)c2)c(O)cc1O` [Ganetespib], the remaining activity at 10 µM in experiment [8] came out at 109%; in [9] it was 98.3%; in [10], 91.1%; in [11], 96.9%.
In the case of `CCNC(=O)c1noc(-c2cc(C(C)C)c(O)cc2O)c1-c1ccc(CN2CCOCC2)cc1` [Luminespib (AUY-922)], the “% Enzyme Activity (relative to DMSO controls)” value was 93.58% in experiment [1]; 103.94% in experiment [2]; 96.69% in experiment [3]; 102.74% in experiment [4]; 97.52% in experiment [5]; 98.43% in [6]. Also, the “% Enzyme Activity (relative to DMSO controls)” value in [7] is 118.79%. Further, the remaining activity at 10 µM in [1] was found to be 94.8%; in experiment [2], 105%; in experiment [3], 97.3%; in [4], 103%; in [5], 99.5%; in [6], 99.7%. Also, the remaining activity at 10 µM in experiment [7] came out at 123%.
In the case of `CCNC(=O)c1noc(-c2cc(C(C)C)c(O)cc2O)c1-c1ccc(CN2CCOCC2)cc1` [Luminespib], the “% Enzyme Activity (relative to DMSO controls)” value in experiment [8] was found to be 93.07%; in experiment [9] it was 95.91%; in experiment [10] it was 102.17%; in [11], 100.42%. In addition, the remaining activity at 10 µM was 93.8% in [8], 97.2% in [9], 103% in experiment [10] and 101% in experiment [11].
